Data as given in PMC11309911 (British journal of pharmacology, 2024).

Target: Cav2.1 calcium channel α1 subunit (P/Q-type hCav2.1) (Homo sapiens, UniProt O00555)
Test: whole-cell patch clamp of ICa in transfected HEK293-F cells
Type: cell-based

Sequence of Cav2.1 calcium channel α1 subunit (P/Q-type hCav2.1) (O00555 whole entry): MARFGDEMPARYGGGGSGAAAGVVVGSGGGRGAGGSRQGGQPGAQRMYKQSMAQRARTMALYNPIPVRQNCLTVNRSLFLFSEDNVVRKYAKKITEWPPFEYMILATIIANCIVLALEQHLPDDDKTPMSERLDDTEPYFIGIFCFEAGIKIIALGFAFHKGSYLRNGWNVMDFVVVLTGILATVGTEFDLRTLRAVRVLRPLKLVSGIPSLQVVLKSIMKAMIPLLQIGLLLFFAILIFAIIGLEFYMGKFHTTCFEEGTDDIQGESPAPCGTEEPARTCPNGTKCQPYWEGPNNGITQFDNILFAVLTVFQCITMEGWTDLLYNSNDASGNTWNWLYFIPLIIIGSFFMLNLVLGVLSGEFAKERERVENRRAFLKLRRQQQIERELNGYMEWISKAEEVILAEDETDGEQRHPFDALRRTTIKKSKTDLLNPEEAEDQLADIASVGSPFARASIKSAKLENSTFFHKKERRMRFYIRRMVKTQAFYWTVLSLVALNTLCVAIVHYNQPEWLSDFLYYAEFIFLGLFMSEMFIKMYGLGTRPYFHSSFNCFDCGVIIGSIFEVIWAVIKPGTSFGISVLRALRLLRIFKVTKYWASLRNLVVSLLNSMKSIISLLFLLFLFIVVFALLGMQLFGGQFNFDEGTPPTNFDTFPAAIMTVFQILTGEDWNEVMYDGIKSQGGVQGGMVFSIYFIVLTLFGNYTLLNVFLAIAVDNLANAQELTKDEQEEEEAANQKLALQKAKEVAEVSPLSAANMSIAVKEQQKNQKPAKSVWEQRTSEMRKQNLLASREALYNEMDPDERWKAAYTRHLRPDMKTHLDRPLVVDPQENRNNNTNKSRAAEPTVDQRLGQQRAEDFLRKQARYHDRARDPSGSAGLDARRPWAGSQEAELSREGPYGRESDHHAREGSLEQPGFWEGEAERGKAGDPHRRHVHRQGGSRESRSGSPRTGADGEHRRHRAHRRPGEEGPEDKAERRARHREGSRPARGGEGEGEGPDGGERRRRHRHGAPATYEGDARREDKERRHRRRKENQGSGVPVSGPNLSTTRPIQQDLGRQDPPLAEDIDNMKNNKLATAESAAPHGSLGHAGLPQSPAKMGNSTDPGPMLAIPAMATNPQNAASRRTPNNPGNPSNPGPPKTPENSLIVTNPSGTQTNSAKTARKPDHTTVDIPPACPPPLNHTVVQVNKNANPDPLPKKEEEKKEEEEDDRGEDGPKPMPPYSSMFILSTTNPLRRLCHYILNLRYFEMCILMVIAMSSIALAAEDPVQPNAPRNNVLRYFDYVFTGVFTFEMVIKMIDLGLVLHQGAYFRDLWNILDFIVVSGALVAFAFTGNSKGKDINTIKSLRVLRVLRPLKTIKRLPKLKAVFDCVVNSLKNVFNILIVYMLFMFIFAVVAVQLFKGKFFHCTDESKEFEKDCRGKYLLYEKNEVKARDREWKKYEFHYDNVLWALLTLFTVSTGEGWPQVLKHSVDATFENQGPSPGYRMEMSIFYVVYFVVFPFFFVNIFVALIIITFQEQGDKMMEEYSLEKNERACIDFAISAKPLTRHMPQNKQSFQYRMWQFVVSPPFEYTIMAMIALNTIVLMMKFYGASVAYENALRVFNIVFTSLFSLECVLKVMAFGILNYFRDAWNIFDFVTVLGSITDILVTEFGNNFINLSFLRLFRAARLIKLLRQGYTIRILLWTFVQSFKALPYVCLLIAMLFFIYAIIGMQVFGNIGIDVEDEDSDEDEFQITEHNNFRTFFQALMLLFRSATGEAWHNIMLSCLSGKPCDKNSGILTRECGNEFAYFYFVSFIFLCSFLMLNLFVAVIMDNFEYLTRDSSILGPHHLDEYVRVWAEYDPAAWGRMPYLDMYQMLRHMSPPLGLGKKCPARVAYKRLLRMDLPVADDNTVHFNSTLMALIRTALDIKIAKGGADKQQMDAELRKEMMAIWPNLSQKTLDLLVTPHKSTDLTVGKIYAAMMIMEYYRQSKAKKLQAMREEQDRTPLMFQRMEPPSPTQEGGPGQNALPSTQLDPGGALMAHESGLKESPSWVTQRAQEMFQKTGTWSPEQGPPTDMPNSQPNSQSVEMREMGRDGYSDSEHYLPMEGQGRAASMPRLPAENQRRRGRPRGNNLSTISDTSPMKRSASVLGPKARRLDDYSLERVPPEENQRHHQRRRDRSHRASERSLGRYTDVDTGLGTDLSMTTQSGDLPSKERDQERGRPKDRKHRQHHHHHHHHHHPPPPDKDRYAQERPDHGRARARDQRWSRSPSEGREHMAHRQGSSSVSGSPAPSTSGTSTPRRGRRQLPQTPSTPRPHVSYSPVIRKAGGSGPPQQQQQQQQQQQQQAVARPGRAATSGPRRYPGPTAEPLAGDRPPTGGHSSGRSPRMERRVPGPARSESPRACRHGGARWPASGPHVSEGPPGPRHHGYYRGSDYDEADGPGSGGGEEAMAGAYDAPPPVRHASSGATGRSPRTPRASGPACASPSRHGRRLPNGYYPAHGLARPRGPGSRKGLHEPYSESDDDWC

IC50: ~2500 nM
Compound: N.N.N.N.N.N.N.N.[Cl][Ru+3].[NH]=[Ru][Cl] [Ru265]
